Values of other authors in patent US11083734B2 (ACUCORT AB, priority 2014, dated 2021).

Experiments:
[1] = humans, oral administration, literature and product information

solubility in water | solubility in anhydrous ethanol | t(max) [1] [h] | SMILES
freely soluble | – | – | C[C@@H]1C[C@H]2[C@@H]3CCC4=CC(=O)C=C[C@]4(C)[C@@]3(F)[C@@H](O)C[C@]2(C)[C@@]1(O)C(=O)COP(=O)(O)O [dexamethasone sodium phosphate]
practically insoluble | sparingly soluble | ~1.5 | C[C@@H]1C[C@H]2[C@@H]3CCC4=CC(=O)C=C[C@]4(C)[C@@]3(F)[C@@H](O)C[C@]2(C)[C@@]1(O)C(=O)CO [dexamethasone]
